According to PubChem BioAssay (NCI):
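Five concentrations, 48 hours, 96-well plates. The concentration for 50% growth inhibition is given as GI50. TGI denotes the concentration required for complete inhibition of growth.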 Where a SMILES comes first, the peptide text is derived from it. The star is where a group is joined. Bn = c1ccc(C*)cc1

Tests used:
Experiment in all cases: inhibition of tumour cell growth, NCI panel, 48 h
NCI-H460 lung = tested on: NCI-H460 lung
HL-60(TB) leukemia = tested on: HL-60(TB) leukemia
A498 renal = tested on: A498 renal
PC-3 prostate = tested on: PC-3 prostate
LOX IMVI melanoma = tested on: LOX IMVI melanoma
MDA-MB-435 = tested on: MDA-MB-435
ACHN renal = tested on: ACHN renal
HCC-2998 colon = tested on: HCC-2998 colon
UO-31 renal = tested on: UO-31 renal
SK-MEL-5 melanoma = tested on: SK-MEL-5 melanoma

Structure (SMILES)	TGI (NCI-H460 lung)	TGI (HL-60(TB) leukemia)	TGI (A498 renal)	TGI (PC-3 prostate)	TGI (LOX IMVI melanoma)	TGI (MDA-MB-435)	TGI (ACHN renal)	TGI (HCC-2998 colon)	TGI (UO-31 renal)	TGI (SK-MEL-5 melanoma)	GI50 (PC-3 prostate)	GI50 (MDA-MB-435)	GI50 (ACHN renal)
COC(=O)c1cc2c(cc1CC(Cc1ccc3c(c1)CCC3)C(=O)OC)CCC2 (stereo not drawn)	> 100 µM	31.1 µM	> 100 µM	> 100 µM	> 100 µM	> 100 µM	> 100 µM	> 100 µM	> 100 µM	67.6 µM			
COC(=O)C1OC(O[C@H]2CC[C@]3(C)[C@H]4CC=C5[C@@H]6CC(C)(C)CC[C@]6(C(=O)OC6OCC(O)C(O)C6OC6OC(C)C(OC7OCC(OC8OCC(O)C(O)C8O)C(O)C7O)C(O)C6O)[C@H](O)C[C@@]5(C)[C@]4(C)CC[C@H]3C2(C)C)C(O)C(O)C1O (stereo partly drawn)	32.5 µM	> 26.9 µM	3.94 µM	15.5 µM	22 µM	3.58 µM	11.9 µM	3.06 µM	3.56 µM	11.6 µM			
Cc1c(C#N)c(N)n(C2OCC(O)C(O)C2O)c(=S)c1C#N (stereo not drawn)	> 100 µM	> 100 µM	> 100 µM	> 100 µM	> 100 µM	> 100 µM	> 100 µM	> 100 µM	> 100 µM	> 100 µM			
O=C(c1ccccc1)N1C(=S)N=C(Nc2ccccc2)C1=Nc1ccccc1	> 100 µM	> 100 µM	> 100 µM	> 100 µM	> 100 µM	> 100 µM	> 100 µM	> 100 µM	> 100 µM	> 100 µM			
Cc1cc2nc(-c3cc(C(C)(C)C)c(O)c(C(C)(C)C)c3)[nH]c2cc1C	> 100 µM	> 100 µM	> 100 µM	> 100 µM	28.6 µM	> 100 µM	> 24.6 µM	> 100 µM	> 27.4 µM	> 100 µM			
CC(C)(C)c1ccc(OCC(=O)O)c(Cl)c1	> 100 µM	> 100 µM	> 100 µM	> 100 µM	> 100 µM	> 100 µM	> 100 µM	> 100 µM	> 100 µM	> 100 µM			
COC(=O)c1cc(C)ccc1CC(Cc1ccc(C)cc1)C(=O)OC (stereo not drawn)	> 100 µM	> 29.1 µM	> 100 µM	> 100 µM	> 100 µM	> 100 µM	> 100 µM	> 100 µM	> 100 µM	12.6 µM			
COC(=O)C(CC(C)C)NC(=O)C(N)Cc1ccc(OCc2ccccc2)cc1 (stereo not drawn) (H-Tyr(Bn)-Leu-OMe; configuration not given here)	> 10 µM	5.61 µM	> 10 µM	> 10 µM	> 10 µM	> 10 µM	> 10 µM	> 10 µM	> 10 µM	> 10 µM			
COc1ccc(N=Nc2c3c(c(O)c4ccccc24)CCC(C)(C)O3)cc1	29.8 µM	50.1 µM	32 µM	87 µM	29.9 µM	32.4 µM	32.4 µM	24.5 µM	35.2 µM	24.9 µM			
O=C1CCCc2cc3c(cc21)CC1(C3)Cc2ccc3c(c2C1)C(=O)CCC3 (stereo not drawn)	> 100 µM	27.7 µM	> 100 µM	> 100 µM	> 100 µM	23.8 µM	55.4 µM	> 100 µM	> 100 µM	7.66 µM			
Cc1c2ccncc2c(C)c2c1[nH]c1ccccc12	1.32 µM	6.78 µM	3.62 µM	8.55 µM	4.2 µM	2.21 µM	4.32 µM	4.87 µM	4.62 µM	2.01 µM	1.2 µM	0.762 µM	0.473 µM
COc1c(O)c(O)cc2c1-c1ccc(OC)c(=O)cc1C(NC(C)=O)CC2 (stereo not drawn)	50.9 µM	18 µM	89 µM	> 100 µM	20.6 µM	3.75 µM	> 96.5 µM	74.8 µM	> 100 µM	11.3 µM			
O=C1CC(Sc2nc3ccc(I)cc3c(=O)n2Cc2ccccc2)C(=O)NN1 (stereo not drawn)	57.2 µM	38.4 µM	29.7 µM	30.7 µM	11.2 µM	33.9 µM	30.2 µM	31.8 µM	1.97 µM	29.7 µM			
N#CCCN(CCC#N)c1ccc(/C=C2\SC(=S)NC2=O)cc1Br	> 100 µM	> 100 µM	> 100 µM	> 100 µM	80.7 µM	> 100 µM	> 100 µM	> 100 µM	> 100 µM	> 100 µM			
c1ccc(-c2cnc(-c3ccc(-c4ncc(-c5ccccc5)o4)cc3)o2)cc1	> 100 µM	> 100 µM	> 100 µM	> 100 µM	> 100 µM	> 100 µM	> 100 µM	> 100 µM	> 100 µM	> 100 µM			
CCc1nc2cc3cccnc3c(Cl)c2[nH]c1=O	> 100 µM	> 100 µM	> 100 µM	> 100 µM	> 100 µM	> 100 µM	> 100 µM	> 100 µM	> 100 µM	> 100 µM			
